Patent publication US20240190851A1, “FURAN FUSED RING-SUBSTITUTED GLUTARIMIDE COMPOUND” (MEDSHINE DISCOVERY INC., priority 2021, published 2024)
Counter-ions that a name gives are not always drawn.

Biological target: T1, androgen receptor AR (Homo sapiens, UniProt P10275, T878A)
T1 construct: degradation effect of compounds on androgen receptor AR in LNCaP cells; endogenous in cells; host or cells: LNCaP
T1 sequence (P10275 1-920 T878A): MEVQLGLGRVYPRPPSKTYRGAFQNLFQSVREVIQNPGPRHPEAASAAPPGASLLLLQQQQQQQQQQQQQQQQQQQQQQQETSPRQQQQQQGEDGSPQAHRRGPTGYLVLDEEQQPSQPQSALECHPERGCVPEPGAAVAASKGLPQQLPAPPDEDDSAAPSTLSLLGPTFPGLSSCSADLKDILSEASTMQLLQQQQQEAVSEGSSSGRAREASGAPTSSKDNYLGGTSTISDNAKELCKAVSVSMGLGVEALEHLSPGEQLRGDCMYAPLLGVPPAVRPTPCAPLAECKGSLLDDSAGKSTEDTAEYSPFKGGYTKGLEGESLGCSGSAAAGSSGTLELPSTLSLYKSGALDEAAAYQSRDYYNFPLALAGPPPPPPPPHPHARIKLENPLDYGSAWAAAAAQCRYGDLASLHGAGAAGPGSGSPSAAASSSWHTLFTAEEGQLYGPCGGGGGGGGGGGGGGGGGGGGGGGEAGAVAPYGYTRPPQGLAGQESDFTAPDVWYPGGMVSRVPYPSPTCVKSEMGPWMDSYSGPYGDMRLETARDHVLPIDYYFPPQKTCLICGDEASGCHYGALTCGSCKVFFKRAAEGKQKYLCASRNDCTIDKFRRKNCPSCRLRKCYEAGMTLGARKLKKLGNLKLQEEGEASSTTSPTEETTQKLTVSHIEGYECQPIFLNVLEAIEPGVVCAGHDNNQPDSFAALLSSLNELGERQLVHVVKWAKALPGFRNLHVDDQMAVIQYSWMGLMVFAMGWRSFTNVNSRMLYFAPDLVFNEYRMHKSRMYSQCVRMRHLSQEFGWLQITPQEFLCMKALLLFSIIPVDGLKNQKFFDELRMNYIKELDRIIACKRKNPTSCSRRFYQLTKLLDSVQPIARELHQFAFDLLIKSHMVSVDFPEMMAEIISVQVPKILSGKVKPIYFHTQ
Experiment: AR degradation in LNCaP cells by ICW method
Type: cell-based
Conditions: 24 hours
Experimental: Experimental purpose: To test the degradation effect of compounds on androgen receptor AR in LNCaP cells by ICW method.
Day 1 • 1. The cell culture medium, 0.025% trypsin, and phosphate buffered saline were preheated in a 37° C. water bath. • 2. Cells digested by trypsin were centrifuged at 1000 rpm for 5 minutes. The supernatant was discarded, and then the cells were resuspended in fresh culture medium. • 3. The cells were inoculated in a COL-Coated CellCarrier-384 plate at a density of 4 k/[…]/well. • 4. The 384 cell plate inoculated with cells was placed in an ultra-clean bench for 10 minutes. • 5. The cell plate was cultured overnight in a CO2 cell incubator.
Day 2 • 1. The compound at a concentration of 10 mM was diluted to 3 mM (3 μL+7 μL of dimethyl sulfoxide) before serial dilution. • 2. The compound was serially diluted 3-fold (4 μL+8 μL) in an Echo plate using Bravo. • 3. ZPE and HPE control wells were setup, and the ZPE control wells were dimethyl sulfoxide. • 4. The Echo plate was centrifuged at 1000 rpm for 1 minute, and then the diluted compound was transferred from the Echo plate to an intermediate plate using Echo with 200 nL/well. • 5. To the intermediate plate was added the cell culture medium using Multidrop combi with […]. • 6. The intermediate plate was shaken on a horizontal shaker for 1 minute to mix the compound well with the culture medium. • 7. The compound was transferred from the intermediate dilution plate to the cell plate using Bravo with 4 μL/well. • 8. The cell plate was shaken on the horizontal shaker for 1 minute, and centrifuged at 800 rpm for 30 seconds. • 9. The cell plate was returned to the CO2 incubator, and cultured for another 24 hours.
Day 3 • 1. 4% paraformaldehyde was removed from the refrigerator and brought to room temperature. • 2. The cell plate was removed from the incubator. • 3. To the cell plate was directly added 4% paraformaldehyde with 40 μL/well. • 4. The plate was incubated at room temperature for 20 minutes. • 5. The culture medium was manually shaken off from the cell plate, inverted in a centrifuge, and centrifuged at 800 rpm for 7 seconds to fully remove the residual culture medium. • 6. To the cell plate was added 4% paraformaldehyde with 25 μL/well. • 7. The plate was incubated at room temperature for 30 minutes. • 8. The paraformaldehyde solution was manually shaken off from the cell plate, inverted in the centrifuge, and centrifuged at 800 rpm for 7 seconds. • 9. 0.1% Trition was added with 25 μL/well. • 10. The plate was incubated at room temperature for 10 minutes. • 11. The 0.1% Trition solution was manually shaken off from the cell plate, inverted in the centrifuge, and centrifuged at 800 rpm for 7 seconds. • 12. Intercept® (PBS) blocking buffer was added with 25 μL/well. • 13. The plate was incubated at room temperature for 1 hour. • 14. The Intercept® (PBS) blocking buffer solution was manually shaken off from the cell plate, inverted in the centrifuge, and centrifuged at 800 rpm for 7 seconds. • 15. Primary antibody solution was added with 20 μL/well. The cell plate was placed in the centrifuge, and centrifuged at 800 rpm for 7 seconds. • 16. The cell plate was sealed, and then incubated overnight at 4° C.
Day 4 • 1. The primary antibody solution was manually shaken off from the cell plate, inverted in the centrifuge, and centrifuged at 800 rpm for 7 seconds. • 2. The plate was washed three times with 110 μL of PBS. • 3. The cell plate was inverted in the centrifuge, and centrifuged at 800 rpm for 7 seconds. • 4. Secondary antibody and DAPI solution was added with 20 μL/well. The cell plate was placed in the centrifuge, and centrifuged at 800 rpm for 7 seconds. • 5. The plate was incubated at room temperature for 1 hour. • 6. The secondary antibody and DAPI solution was manually shaken off from the cell plate, inverted in the centrifuge, and centrifuged at 800 rpm for 7 seconds. • 7. […]

Row | SMILES | DC50 [nM] | Dmax [%]
1 | N#Cc1ccc(O[C@H]2CC[C@H](NC(=O)c3ccc(N4CCC(CN5CCN(c6cccc7c6ccc6occ(C8CCC(=O)NC8=O)c67)CC5)CC4)nn3)CC2)cc1Cl (stereo partly shown) [Hydrochloride of WX015] | 13.7 | 102
2 | CC1(C)C(=O)N(c2ccc(C#N)c(C(F)(F)F)c2)C(=S)N1c1ccc(OCCN2CCN(CC(=O)Nc3ccc4c(C5CCC(=O)NC5=O)coc4c3)CC2)c(F)c1 (stereo not shown) [WX002] | 8.9 | 72
